# Data taken from US11505574B2, “Modulation of P53 for the treatment of cancer” (THE REGENTS OF THE UNIVERSITY OF CALIFORNIA, priority 2016, dated 2022).
# Bridges are numbered along the chain shown (N, C = ends). Where no end group is shown, it is not given here. [ ]: non-standard residue; d: D form.
# Tests used:
# [1] = system: p53; test: Western blot for p53 and downstream targets in RKO cells treated with peptides; assay type: cell-based, human; details: for protein expression of p53 and downstream target MDM2 (Western blot): 375 nM peptide with 7.5 μg PEP1 (20:1), 18 hours (FIG. 1E)
# [2] = target: eIF4E (His-tagged) (Homo sapiens, UniProt P06730); test: Pulldown of His-tagged eIF4E by peptides bound to TentaGel resin; assay type: binding; details: linear and cyclized Pep8 on TentaGel resin; 2 μg purified eIF4E overnight (FIG. 36A)
# Procedure: The peptides bound to Tentagel™ resin were incubated with His-eIF4E overnight and then washed extensively before being eluted with SDS-PAGE lysis buffer followed by Western blot assay for His-eIF4E. Lane #1: peptide-8 (SEQ ID NO:1); Lane #2: Cyc-8 peptide (SEQ ID NO:5); Lane #3: kAmi-8 peptide (SEQ ID NO:8); Lane #4: Ami-8 peptide (SEQ ID NO:7).
# For the experiments shown in FIG. 36A, linear and cyclized versions of Pep8 (i.e., peptides having the amino acid sequences set forth in SEQ ID NOS:1, 5, 7, and 8) were synthesized and bound to TentaGel resin. Resin was washed 3× with 1× lysis buffer, and then incubated with 1× lysis buffer+0.3% BSA for 1 hour while rotating in a cold room. Next, resin was incubated with 1× lysis buffer+0.3% BSA+2 μg purified eIF4E (His-tagged) overnight. Next, resin was washed with 1× lysis buffer+0.3% BSA 3 times, followed by washing with 1× lysis buffer with no Triton X-100 three times. Finally, elution was performed with 1×SDS-loading buffer (70 μl) to load all onto a 12% SDS-PAGE gel for Western blot for His-tagged eIF4E.
# [3] = system: MCF7 tumor spheres; test: MCF7 tumor sphere assay; assay type: cell-based, human; details: MCF7 cells; 150 nM with 3 μg PEP1; 3.125 ng/mL doxorubicin; 7 days (FIG. 36C)
# Procedure: For the experiments shown in FIG. 34E, MCF7 cells were plated at a density of 20,000 cells per well using 2 mL Mammocult media in 6-well ultra-low adherent plates. The following day, cells were treated with Pen-Ctrl or Pen-Pep8 at a concentration of 5 μM. Peptides were added to each well for 20 minutes followed by 6.25 ng/mL doxorubicin. Cells were grown for 7 days and then the number of tumor spheres that were larger than 50 μm in diameter were counted (i.e., 20 10× photos were randomly taken and tumor spheres counted from the digital photos). For the graph shown in FIG. 34F, statistical analysis was performed using the student's t-test (n=3; *p≤0.05).
# For the experiments shown in FIG. 36C, MCF7 cells were plated at a density of 20,000 cells per well using 2 mL Mammocult media in 6-well ultra-low adherent plates. The following day, cells were treated with 150 nM Cyc-Ctrl or Cyc-Pep8 (SEQ ID NO:5). 150 nM Cyc-Ctr/Pep8 was incubated in 100 μL serum-free DMEM with 3 μg PEP1 for 25 minutes before being added to the cells. After 20 minutes, 3.125 ng/mL doxorubicin was added to the cells for 7 days. Cells were grown for 7 days and then tumor spheres were counted that were larger than 50 μm in diameter (i.e., 20 10× photos were randomly taken and tumor spheres were counted from the digital photos).
# Chain of eIF4E (His-tagged) (P06730 whole entry): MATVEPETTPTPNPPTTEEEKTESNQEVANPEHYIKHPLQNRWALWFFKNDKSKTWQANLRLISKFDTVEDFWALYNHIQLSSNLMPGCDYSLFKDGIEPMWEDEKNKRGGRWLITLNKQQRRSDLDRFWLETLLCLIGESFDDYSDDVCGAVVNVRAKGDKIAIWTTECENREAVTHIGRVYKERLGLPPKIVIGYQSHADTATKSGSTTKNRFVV
substance,measurement,setting,value
"cYPYAASPAc ([dC]YPYAASPA[dC]; disulfide 1-10 (inferred)) [Cyc-8, disulfide cyclic 10-mer of peptide-8]","p53 expression in combination with low-dose doxorubicin, cyclized versus linear peptide",[1]; 6.25 ng/mL doxorubicin (FIG. 23E),stronger effect in combination with low-dose doxorubicin
same,"upregulation of p53 (Western blot), cyclized versus linear peptide","[1]; 25 nM, 50 nM, 150 nM, 375 nM peptide (FIGS. 23A-23D)",stronger upregulation of p53
same,"p53 expression, potency compared to other forms of Pep8 (Western blot)","[1]; RKO cells, 25 nM, 50 nM, 150 nM or 375 nM with PEP1 at 20:1 molar ratio, 18 hours (FIG. 36B)","increased potency compared to other forms of Pep8, as shown by an increase of p53 with the addition of only 25 nM of the peptide"
same,protein expression of p53 and downstream target MDM2 (Western blot),[1]; RKO cells,enhanced the protein expression of p53 and the downstream target MDM2
same,protein expression of p53 and downstream target MDM2 (Western blot),"[1]; RKO cells, listed as cyclized version of peptide-8",able to increase p53 protein expression
same,"binding of His-tagged eIF4E (pulldown, Western blot)",[2],bound the most eIF4E
same,"tumor spheres larger than 50 μm in diameter, sensitization to low-dose doxorubicin",[3],sensitized MCF7 tumor spheres to low-dose doxorubicin treatment
